According to article PMC8402547, “In Vitro and In Vivo Analysis of Ochratoxin A-Derived Glucuronides and Mercapturic Acids as Biomarkers of Exposure” (Toxins, 2021):
Read-outs that look alike come from different tables or passages of the source.

Columns and labels:
[1] = 0.5 mg/kg bw oral, within 96 h, cited from earlier work
[2] = human urine samples; cited from earlier work
[3] = In vitro incubation of OTA with liver S9 and UDP-glucuronic acid (glucuronide formation); assay type: in vitro ADME, rat
Procedure: (§1) Liver S9 fractions from rats (Sprague-Dawley, male, 97 donors, 20 mg/mL) and humans (mixed genders, 50 donors, 20 mg/mL) were obtained from XenoTech (Kansas City, USA). S9 fractions from Goettingen® minipigs and rabbits were prepared in-house based on a modified protocol from Hubbard et al. (1985). Rabbit liver (Blue Vienna x German Giant, female) was obtained from ImmonuGlobe (Himmelstadt, Germany), whereas minipig liver (Goettingen® minipig, male, 42.4 kg bw) was obtained from the University Goettingen, Department of Animal Science.
(§2) For analysis of OTA-derived glucuronides, liver S9 fractions (4 mg/mL) of rats, rabbit, minipigs and humans were incubated with OTA (0.1 mM), uridine-diphosphate-glucuronic acid (5 mM) and magnesium chloride (5 mM) in 100 mM phosphate-buffered saline (pH 7.4) in a total volume of 300 µL at 37 °C for two hours. Control incubations were carried out in the absence of uridine-diphosphate-glucuronic acid. […] Ten microliters (10 µL) of each sample was injected into the LC–MS system and analyzed using the method described below. […]
(§3) The API 2000/Q-Trap mass spectrometer was operated with a Turbo Ion Spray source in negative ion mode with a voltage of −4000 V. Spectral data were recorded with N2 as the heater gas at 450 °C and as the collision gas (CAD = −2) in multiple reaction monitoring mode (MRM).

[4] = as above; assay type: in vitro ADME; details: OTA 0.1 mM, UDPGA 5 mM, 37 °C
Procedure: as §1, §2, §3

[5] = as above; assay type: in vitro ADME, human
Procedure: as §1, §2, §3

Row | Structure (SMILES) | Fraction of orally administered dose excreted in urine ([1]; female rats) [%] | Fraction of orally administered dose excreted in urine ([1]; male rats) [%] | Concentration in human urine following enzymatic hydrolysis as compared to without hydrolysis [2] | Formation of OTA glucuronide (m/z transitions 578/402 and 578/358) ([3]; rat liver S9 4 mg/mL, OTA 0.1 mM, UDPGA 5 mM, 37 °C) | OTA-glucuronide formed as compared to rabbit and minipig samples (signal intensities) ([3]; rat liver S9 vs rabbit and minipig liver S9) | Formation of OTA glucuronide (m/z transitions 578/402 and 578/358) ([4]; minipig liver S9 4 mg/mL) | Formation of OTA glucuronide (m/z transitions 578/402 and 578/358) ([4]; rabbit liver S9 4 mg/mL) | Formation of OTA glucuronide (m/z transitions 578/402 and 578/358) ([5]; human liver S9 4 mg/mL, OTA 0.1 mM, UDPGA 5 mM, 37 °C) | OTA-glucuronide formed as compared to rabbit and minipig samples (signal intensities) ([5]; human liver S9 vs rabbit and minipig liver S9)
1 | C[C@@H]1Cc2c(Cl)cc(C(=O)N[C@@H](Cc3ccccc3)C(=O)O)c(O)c2C(=O)O1 [OTA, Ochratoxin A] | 5.2 | 2.1 | up to 6 fold | – | – | – | – | – | –
2 | CC1Cc2c(Cl)cc(C(=O)NC(Cc3ccccc3)C(=O)OC3OC(C(=O)O)C(O)C(O)C3O)c(O)c2C(=O)O1 (stereo not drawn) [OTA-Glucuronide] | – | – | – | detected | 5–10 times | detected | detected | detected | 5–10 times
